Key:
rat [1] = conditions: Subchronic oral toxicity in rodents, wistar, Feed, dose end: 90 day, group: systemic
dog [2] = conditions: Chronic toxicity, beagle, Oral, Feed, dose end: 52 week, group: systemic
rat [3] = conditions: Prenatal developmental toxicity study, wistar, Oral, Gavage/Intubation, dose end: 15 GD
mouse [4] = conditions: Carcinogenicity, other, Oral, Feed, dose end: 18 month, group: systemic
rat [5] = conditions: Multigenerational reproductive toxicity study, Wistar, Oral, Feed, dose end: 2 generation
rabbit = conditions: Prenatal developmental toxicity study, new zealand white, Oral, Gavage/Intubation, dose end: 28 GD
rat [6] = conditions: Combined chronic toxicity/carcinogenicity, wistar, Oral, Feed, dose end: 2 year, group: systemic
rat [7] = conditions: Combined chronic toxicity/carcinogenicity; wistar; Oral; Diet; dose end: 104 week; group: systemic; systemic / in life observation / body weight / body weight + systemic / in life observation / food consumption / food consumption + systemic…
mouse [8] = conditions: Subchronic oral toxicity in rodents, other, Feed, dose end: 90 day, group: systemic
rat [9] = conditions: Carcinogenicity; fischer; Oral; Feed; dose end: 2 year; group: systemic; systemic / in life observation / body weight / body weight + systemic / pathology microscopic / kidney / hemosiderosis + systemic / …
mouse [10] = conditions: Carcinogenicity; b6c3f1; Oral; Feed; dose end: 2 year; group: systemic; systemic / in life observation / body weight / body weight
rat [11] = conditions: Subchronic oral toxicity in rodents, sprague dawley, Feed, dose end: 90 day, group: systemic
rat [12] = conditions: Combined chronic toxicity/carcinogenicity, sprague dawley, Oral, Feed, dose end: 2 year, group: systemic
rat [13] = conditions: Prenatal developmental toxicity study, wistar, Oral, Gavage/Intubation, dose end: 16 GD
mouse [14] = conditions: Carcinogenicity; cd1; Oral; Feed; dose end: 18 month; group: systemic; systemic / in life observation / body weight / body weight + systemic / in life observation / body weight / body weight gain + systemic / in…
dog [15] = conditions: Chronic toxicity, beagle, Oral, Capsule, dose end: 53 week, group: systemic
rat [16] = conditions: Multigenerational reproductive toxicity study, sprague dawley, Oral, Feed, dose end: 3 generation
dog [17] = conditions: Subchronic oral toxicity in nonrodent, beagle, Capsule, dose end: 90 day, group: systemic, systemic / in life observation / clinical signs / [other] + systemic / in life observation / clinical signs / feces, discoloration + …
mouse [18] = conditions: Chronic toxicity; cd1; Oral; Feed; dose end: 1 year; group: systemic; systemic / in life observation / body weight / body weight gain + systemic / in life observation / food consumption / food efficiency
rat [19] = conditions: Subchronic oral toxicity in rodents, sprague dawley, Feed, dose end: 90 day, group: systemic, systemic / in life observation / body weight / body weight gain + systemic / pathology gross / eye / opacity + systemic / pathology …
[20] = systemic / clinical chemistry / alkaline phosphatase (alp/alk) / alkaline phosphatase (alp/alk) + systemic / clinical chemistry / urea …
[21] = systemic / hematology / erythrocyte (rbc) count differential / erythrocyte (rbc) + systemic / hematology / hematocrit (hct) / hematocrit (…
[22] = group: developmental, systemic / in life observation / body weight / fetal weight
[23] = group: maternal, systemic / in life observation / body weight / body weight + systemic / in life observation / body weight / body weight gain
[24] = systemic / pathology microscopic / epididymis / dilatation + systemic / pathology microscopic / epididymis / infiltration cellular + …
[25] = group: offspring, systemic / in life observation / body weight / offspring (pup) weight gain
[26] = group: parental, systemic / in life observation / body weight / body weight gain
[27] = group: developmental, developmental / developmental malformation / bone / hole(s) + developmental / developmental malformation / bone / incomplete ossification + …
[28] = group: maternal, reproductive / reproductive performance / aborted / aborted + systemic / in life observation / body weight / body weight gain + systemic / …
[29] = systemic / in life observation / body weight / body weight + systemic / in life observation / body weight / body weight gain + systemic / …
[30] = systemic / clinical chemistry / cholesterol / cholesterol + systemic / pathology microscopic / liver / hypertrophy + systemic / clinical …
[31] = systemic / organ weight / liver / absolute + systemic / organ weight / liver / relative to body weight
[32] = systemic / in life observation / body weight / body weight + systemic / in life observation / body weight / body weight gain
[33] = group: developmental, developmental / developmental malformation / bone / unossified + developmental / developmental malformation / bone / bipartite ossification…
[34] = group: maternal, systemic / in life observation / body weight / body weight gain + systemic / in life observation / food consumption / food consumption + …
[35] = systemic / clinical chemistry / tyrosine / tyrosine + systemic / pathology microscopic / lymph node / erythrophagocytosis
[36] = systemic / clinical chemistry / tyrosine / tyrosine + systemic / pathology microscopic / lymph node / erythrophagocytosis + systemic / in …
[37] = group: offspring, systemic / clinical chemistry / tyrosine / tyrosine
[38] = group: parental, systemic / clinical chemistry / tyrosine / tyrosine
[39] = group: parental, systemic / clinical chemistry / tyrosine / tyrosine + systemic / organ weight / liver / relative to body weight
[40] = group: reproductive, reproductive / offspring survival early / litter size / litter size
[41] = group: reproductive, reproductive / offspring survival early / litter size / litter size + reproductive / offspring survival early / birth index / live birth …

O=C(Nc1ccccc1)Nc1cnns1 [Thidiazuron]
LOAEL (rat [1]; [20]): 102 mg/kg/day
NEL (rat [1]; [20]): 11.2 mg/kg/day
NOAEL (rat [1]; [20]): 34.5 mg/kg/day
LEL (rat [1]; systemic / clinical chemistry / phosphorus / phosphorus): 34.5 mg/kg/day
LOAEL (dog [2]; [21]): 11.8 mg/kg/day
NOAEL (dog [2]; [21]): 3.93 mg/kg/day
LEL (dog [2]; systemic / organ weight / spleen / absolute + systemic / organ weight / spleen / relative to body weight): 11.1 mg/kg/day
NEL (dog [2]; systemic / organ weight / spleen / absolute + systemic / organ weight / spleen / relative to body weight + systemic / hematology / …): 4.01 mg/kg/day
LEL (rat [3]; [22]): 300 mg/kg/day
LOAEL (rat [3]; [22]): 300 mg/kg/day
NEL (rat [3]; [22]): 100 mg/kg/day
NOAEL (rat [3]; [22]): 100 mg/kg/day
LEL (rat [3]; [23]): 300 mg/kg/day
LOAEL (rat [3]; [23]): 300 mg/kg/day
NEL (rat [3]; [23]): 100 mg/kg/day
NOAEL (rat [3]; [23]): 100 mg/kg/day
LOAEL (mouse [4]; systemic / pathology microscopic / epididymis / dilatation + systemic / pathology microscopic / epididymis / infiltration cellular): 86.7 mg/kg/day
LEL (mouse [4]; [24]): 86.7 mg/kg/day
NEL (mouse [4]; [24]): 26.5 mg/kg/day
NOAEL (mouse [4]; [24]): 26.5 mg/kg/day
LEL (rat [5]; [25]): 108 mg/kg/day
LOAEL (rat [5]; [25]): 108 mg/kg/day
NEL (rat [5]; [25]): 35.4 mg/kg/day
NOAEL (rat [5]; [25]): 35.4 mg/kg/day
LEL (rat [5]; [26]): 108 mg/kg/day
LOAEL (rat [5]; [26]): 108 mg/kg/day
NEL (rat [5]; [26]): 35.4 mg/kg/day
NOAEL (rat [5]; [26]): 35.4 mg/kg/day
LEL (rabbit; [27]): 125 mg/kg/day
LOAEL (rabbit; [27]): 125 mg/kg/day
NEL (rabbit; [27]): 25 mg/kg/day
NOAEL (rabbit; [27]): 25 mg/kg/day
LEL (rabbit; [28]): 125 mg/kg/day
LOAEL (rabbit; [28]): 125 mg/kg/day
NEL (rabbit; [28]): 25 mg/kg/day
NOAEL (rabbit; [28]): 25 mg/kg/day
LOAEL (rat [6]; [29]): 36.4 mg/kg/day
NOAEL (rat [6]; [29]): 8 mg/kg/day
NEL (rat [6]; systemic / pathology microscopic / kidney / mineralization + systemic / pathology microscopic / kidney / dilatation + systemic / pathology …): 105 mg/kg/day
LEL (rat [7]): 31.7 mg/kg/day
LOAEL (rat [7]): > 31.7 mg/kg/day
NEL (rat [7]): 10.6 mg/kg/day
NOAEL (rat [7]): ≥ 31.7 mg/kg/day
LOAEL (mouse [8]; systemic / clinical chemistry / cholesterol / cholesterol + systemic / pathology microscopic / liver / hypertrophy): 171 mg/kg/day
NEL (mouse [8]; [30]): 85.2 mg/kg/day
NOAEL (mouse [8]; [30]): 85.2 mg/kg/day
LEL (mouse [8]; systemic / clinical chemistry / cholesterol / cholesterol + systemic / pathology microscopic / liver / hypertrophy + systemic / organ weight…): 171 mg/kg/day

c1ccc(N=Nc2ccccc2)cc1 [Azobenzene]
LEL (rat [9]): 10 mg/kg/day
LOAEL (rat [9]): > 20 mg/kg/day
NEL (rat [9]): < 10 mg/kg/day
NOAEL (rat [9]): ≥ 20 mg/kg/day
LEL (mouse [10]): 30 mg/kg/day
LOAEL (mouse [10]): 81.8 mg/kg/day
NEL (mouse [10]): < 30 mg/kg/day

CS(=O)(=O)c1ccc(C(=O)C2C(=O)CCCC2=O)c([N+](=O)[O-])c1 [Mesotrione]
LEL (rat [11]; [31]): 0.21 mg/kg/day
NEL (rat [11]; [31]): < 0.21 mg/kg/day
LOAEL (rat [11]; systemic / pathology microscopic / eye / neovascularization + systemic / pathology microscopic / eye / opacity): 0.63 mg/kg/day
NOAEL (rat [11]; systemic / pathology microscopic / eye / neovascularization + systemic / pathology microscopic / eye / opacity + systemic / clinical …): 0.41 mg/kg/day
LEL (rat [12]; [32]): 0.06 mg/kg/day
NEL (rat [12]; [32]): < 0.06 mg/kg/day
LOAEL (rat [12]; systemic / organ weight / kidney / absolute + systemic / organ weight / kidney / nos + systemic / organ weight / liver / absolute + systemic…): 0.48 mg/kg/day
LEL (rat [13]; [33]): 100 mg/kg/day
LOAEL (rat [13]; [33]): 100 mg/kg/day
NEL (rat [13]; [33]): < 100 mg/kg/day
NOAEL (rat [13]; [33]): < 100 mg/kg/day
LOAEL (rat [13]; group: maternal, systemic / in life observation / body weight / body weight gain + systemic / in life observation / food consumption / food consumption): 300 mg/kg/day
LEL (rat [13]; [34]): 300 mg/kg/day
NEL (rat [13]; [34]): 100 mg/kg/day
NOAEL (rat [13]; [34]): 100 mg/kg/day
LEL (mouse [14]): 898 mg/kg/day
LOAEL (mouse [14]): 898 mg/kg/day
NEL (mouse [14]): 49.7 mg/kg/day
NOAEL (mouse [14]): 49.7 mg/kg/day
LOAEL (dog [15]; [35]): 10 mg/kg/day
NOAEL (dog [15]; [35]): < 10 mg/kg/day
LEL (dog [15]; [36]): 10 mg/kg/day
NEL (dog [15]; [36]): < 10 mg/kg/day
LEL (rat [16]; [37]): 0.3 mg/kg/day
LOAEL (rat [16]; [37]): 0.3 mg/kg/day
NEL (rat [16]; [37]): < 0.3 mg/kg/day
NOAEL (rat [16]; [37]): < 0.3 mg/kg/day
LOAEL (rat [16]; [38]): 0.3 mg/kg/day
NOAEL (rat [16]; [38]): < 0.3 mg/kg/day
LEL (rat [16]; [39]): 0.3 mg/kg/day
NEL (rat [16]; [39]): < 0.3 mg/kg/day
LEL (rat [16]; [40]): 1.1 mg/kg/day
LOAEL (rat [16]; [40]): 1.1 mg/kg/day
NEL (rat [16]; [41]): 0.3 mg/kg/day
NOAEL (rat [16]; [41]): 0.3 mg/kg/day
LEL (dog [17]): 600 mg/kg/day
LOAEL (dog [17]): > 1000 mg/kg/day
NEL (dog [17]): 100 mg/kg/day
NOAEL (dog [17]): ≥ 1000 mg/kg/day
LEL (mouse [18]): 1110 mg/kg/day
LOAEL (mouse [18]): 1110 mg/kg/day
NEL (mouse [18]): 56.2 mg/kg/day
NOAEL (mouse [18]): 56.2 mg/kg/day
LEL (rat [19]): 11 mg/kg/day
LOAEL (rat [19]): 11 mg/kg/day
NEL (rat [19]): 0.09 mg/kg/day
NOAEL (rat [19]): 0.09 mg/kg/day

— EPA's ToxRefDB 2
